{
  "source": "paper PMC5367156",
  "about": "(ACS chemical biology, 2016)",
  "target": "NRF2 (nuclear factor erythroid 2-related factor 2) (Homo sapiens, UniProt Q16236)",
  "sequence (O15525 whole entry)": "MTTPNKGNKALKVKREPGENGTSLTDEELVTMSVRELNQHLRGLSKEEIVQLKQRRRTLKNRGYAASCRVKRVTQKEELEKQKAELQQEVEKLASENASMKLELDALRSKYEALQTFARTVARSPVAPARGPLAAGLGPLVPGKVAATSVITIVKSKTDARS",
  "sequence (Q16236 whole entry)": "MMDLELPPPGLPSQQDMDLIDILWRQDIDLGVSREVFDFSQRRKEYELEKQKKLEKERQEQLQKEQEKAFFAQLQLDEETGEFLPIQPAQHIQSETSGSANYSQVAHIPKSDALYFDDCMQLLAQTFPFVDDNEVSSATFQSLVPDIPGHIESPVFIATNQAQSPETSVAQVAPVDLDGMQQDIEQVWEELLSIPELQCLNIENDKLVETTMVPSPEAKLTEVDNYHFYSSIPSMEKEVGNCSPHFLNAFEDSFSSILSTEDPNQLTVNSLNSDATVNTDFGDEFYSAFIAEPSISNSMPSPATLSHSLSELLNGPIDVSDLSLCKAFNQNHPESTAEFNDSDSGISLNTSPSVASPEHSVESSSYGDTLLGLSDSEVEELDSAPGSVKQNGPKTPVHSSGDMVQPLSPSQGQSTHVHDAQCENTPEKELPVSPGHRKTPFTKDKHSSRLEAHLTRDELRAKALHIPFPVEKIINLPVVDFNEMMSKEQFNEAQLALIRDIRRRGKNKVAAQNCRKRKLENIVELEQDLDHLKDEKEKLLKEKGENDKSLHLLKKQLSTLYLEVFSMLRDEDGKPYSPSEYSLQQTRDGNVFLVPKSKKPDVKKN",
  "test": "FP displacement of fluorescein-ARE DNA from purified NRF2-MAFG",
  "assay_type": "binding",
  "data": [
    {"smiles": "Cc1ccccc1C(=O)N1CCc2cc(-c3nc(NC(=O)Cc4ccc5c(c4)OCO5)sc3C)ccc21", "note": "[compound 2, ML385]", "values": [
      {"measurement": "IC50", "value": 1.9, "unit": "µM"}
    ]}
  ]
}
